Data as given in US9695171B2, “3,4-disubstituted-1 H-pyrrolo[2,3-b]pyridines and 4,5-disubstituted-7H-pyrrolo[2,3-c]pyridazines as LRRK2 inhibitors” (Pfizer Inc., priority 2013, dated 2017).

What follows are compounds tested against T1, GST-tagged truncated LRRK2 (Homo sapiens, UniProt Q5S007) (assay: LRRK2 kinase assay (Lantha Screen)). Details: 1 mM ATP (head); a = geometric mean of >=4 determinations, b = single determination; read-out: LRRK2 LANTHA EC50 at 1 mM ATP; Geometric mean of 2-3 determinations unless otherwise indicated.
T1 construct: GST-tagged truncated LRRK2 from Invitrogen (Cat # PV4874); GST; purchased Invitrogen PV4874
Assay type: biochemical
Experimental: LRRK2 kinase activity was measured using Lantha Screen technology from Invitrogen. GST-tagged truncated LRRK2 from Invitrogen (Cat # PV4874) was incubated with a fluorescein-labeled peptide substrate based upon ezrin/radixin/moesin (ERM), also known as LRRKtide (Invitrogen cat # PR8976A), in the presence of a dose response of compound. Upon completion, the assay was stopped and detected with a terbium labeled anti-phospho-ERM antibody (Invitrogen, cat # PR8975A). […] The compound dose response was prepared by diluting compound to a top concentration of 3.16 mM in 100% DMSO and serial diluted by half-log in DMSO 11 times. Aliquots (3.5 μL) of the 100% DMSO dose response were mixed with 46.5 μL water then 1 μL of this mixture was added to the 3 μL substrate mix in the 384-well plate. The kinase reaction was started with 3 μL of a working solution of LRRK2 enzyme at a concentration of 4 μg/mL. […] The reaction was allowed to progress at room temperature for two hours and then stopped with the addition of 7 μL of detection buffer (20 mM Tris pH 7.6, 0.01% NP-40, 0.02% NaN3, 6 mM EDTA with 2 nM terbium labeled anti-phospho-ERM). After an incubation of 1 hour at room temperature, the plate was read on an Envision with an excitation wavelength of 340 nm and a reading emission at both 520 nm and 495 nm. The ratio of the 520 nm and 495 nm emission was used to analyze the data.

T1 sequence (Q5S007 970-2527 limits assumed): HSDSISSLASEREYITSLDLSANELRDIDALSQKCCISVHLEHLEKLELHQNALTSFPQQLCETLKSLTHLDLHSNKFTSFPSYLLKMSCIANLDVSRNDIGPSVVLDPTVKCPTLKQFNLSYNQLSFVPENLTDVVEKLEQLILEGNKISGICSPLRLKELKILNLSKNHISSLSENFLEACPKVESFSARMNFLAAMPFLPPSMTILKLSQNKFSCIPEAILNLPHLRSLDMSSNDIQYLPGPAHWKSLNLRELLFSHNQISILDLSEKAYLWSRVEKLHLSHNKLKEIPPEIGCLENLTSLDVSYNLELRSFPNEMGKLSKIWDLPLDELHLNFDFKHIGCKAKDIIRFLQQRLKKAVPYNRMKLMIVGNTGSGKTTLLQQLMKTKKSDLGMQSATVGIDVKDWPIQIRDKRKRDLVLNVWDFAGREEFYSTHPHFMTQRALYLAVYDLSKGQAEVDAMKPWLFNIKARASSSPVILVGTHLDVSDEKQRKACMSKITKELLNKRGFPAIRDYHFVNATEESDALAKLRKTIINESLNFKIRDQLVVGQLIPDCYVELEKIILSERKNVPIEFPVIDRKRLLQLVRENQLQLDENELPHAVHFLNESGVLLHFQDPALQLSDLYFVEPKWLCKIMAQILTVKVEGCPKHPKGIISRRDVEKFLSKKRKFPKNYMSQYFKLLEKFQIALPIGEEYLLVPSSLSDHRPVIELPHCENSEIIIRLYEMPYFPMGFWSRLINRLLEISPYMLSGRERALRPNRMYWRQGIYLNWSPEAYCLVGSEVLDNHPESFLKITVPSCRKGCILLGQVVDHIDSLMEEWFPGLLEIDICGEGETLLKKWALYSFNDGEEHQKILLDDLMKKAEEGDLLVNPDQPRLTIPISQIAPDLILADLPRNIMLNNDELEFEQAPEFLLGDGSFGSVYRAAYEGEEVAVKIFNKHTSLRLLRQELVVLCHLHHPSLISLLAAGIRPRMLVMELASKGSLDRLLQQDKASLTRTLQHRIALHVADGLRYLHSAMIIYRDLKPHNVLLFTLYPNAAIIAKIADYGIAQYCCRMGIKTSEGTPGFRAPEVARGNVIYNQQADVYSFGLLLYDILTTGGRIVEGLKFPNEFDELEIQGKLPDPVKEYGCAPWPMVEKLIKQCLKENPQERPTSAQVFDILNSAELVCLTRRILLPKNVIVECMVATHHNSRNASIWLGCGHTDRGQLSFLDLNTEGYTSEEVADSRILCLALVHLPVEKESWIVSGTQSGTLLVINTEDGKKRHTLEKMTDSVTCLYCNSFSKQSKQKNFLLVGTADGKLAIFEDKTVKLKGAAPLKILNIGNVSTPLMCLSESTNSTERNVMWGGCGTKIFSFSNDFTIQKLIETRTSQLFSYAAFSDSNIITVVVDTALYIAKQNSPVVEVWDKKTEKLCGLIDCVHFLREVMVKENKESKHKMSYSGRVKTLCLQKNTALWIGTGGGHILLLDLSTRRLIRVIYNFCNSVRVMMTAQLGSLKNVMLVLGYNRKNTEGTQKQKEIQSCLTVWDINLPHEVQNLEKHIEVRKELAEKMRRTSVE

| SMILES | EC50 [nM] |
| --- | --- |
| N#Cc1cccc(-c2c[nH]c3nccc(N4CCCC(F)(F)C4)c23)c1 [Example 79, 3-[4-(3,3-difluoropiperidin-1-yl)-1H-pyrrolo[2,3-b]pyridin-3-yl]benzonitrile] | 99.2 |
| N#CCc1cnc2[nH]cc(-c3cccc(C#N)c3)c2c1N1CCOCC1 [Example 83, 3-[5-(cyanomethyl)-4-(morpholin-4-yl)-1H-pyrrolo[2,3-b]pyridin-3-yl]benzonitrile] | 106 |
| COCc1cnc2[nH]cc(-c3cccc(C#N)c3)c2c1N1CCOCC1 [Example 84, 3-[5-(methoxymethyl)-4-(morpholin-4-yl)-1H-pyrrolo[2,3-b]pyridin-3-yl]benzonitrile] | 63.4 |
| Cn1cc(-c2c[nH]c3nccc(-c4cccc(F)c4F)c23)cn1 [Example 96, 4-(2,3-difluorophenyl)-3-(1-methyl-1H-pyrazol-4-yl)-1H-pyrrolo[2,3-b]pyridine] | 58.9 |
| Cn1cc(-c2c[nH]c3nccc(-c4cccc(Cl)c4)c23)cn1 [Example 97, 4-(3-chlorophenyl)-3-(1-methyl-1H-pyrazol-4-yl)-1H-pyrrolo[2,3-b]pyridine] | 63.1 |
| COc1cccc(-c2ccnc3[nH]cc(-c4cnn(C)c4)c23)c1F [Example 98, 4-(2-fluoro-3-methoxyphenyl)-3-(1-methyl-1H-pyrazol-4-yl)-1H-pyrrolo[2,3-b]pyridine] | 85.9 |
| CNS(=O)(=O)c1cccc(-c2ccnc3[nH]cc(-c4cccc(C#N)c4)c23)c1 [Example 99, 3-[3-(3-cyanophenyl)-1H-pyrrolo[2,3-b]pyridin-4-yl]-N-methylbenzenesulfonamide] | 92.5 |
| COc1ccc(F)c(F)c1-c1c[nH]c2ncc(C#N)c(C3CC3)c12 [Example 100, 4-cyclopropyl-3-(2,3-difluoro-6-methoxyphenyl)-1H-pyrrolo[2,3-b]pyridine-5-carbonitrile] | 99.2 |
| Cn1cc(-c2ccnc3[nH]cc(-c4cccc(C#N)c4)c23)cn1 [Example 101, 3-[4-(1-methyl-1H-pyrazol-4-yl)-1H-pyrrolo[2,3-b]pyridin-3-yl]benzonitrile] | 101 |
| Cn1cc(-c2c[nH]c3nccc(-c4ccncc4)c23)cn1 [Example 102, 3-(1-methyl-1H-pyrazol-4-yl)-4-(pyridin-4-yl)-1H-pyrrolo[2,3-b]pyridine] | 102 |
| Cn1cc(-c2c[nH]c3nccc(-c4cc(F)cc(F)c4)c23)cn1 [Example 103, 4-(3,5-difluorophenyl)-3-(1-methyl-1H-pyrazol-4-yl)-1H-pyrrolo[2,3-b]pyridine] | 125 |
| COc1ccc(-c2ccnc3[nH]cc(-c4cnn(C)c4)c23)cc1F [Example 104, 4-(3-fluoro-4-methoxyphenyl)-3-(1-methyl-1H-pyrazol-4-yl)-1H-pyrrolo[2,3-b]pyridine] | 138 |
| COc1ccc(-c2ccnc3[nH]cc(-c4cnn(C)c4)c23)c(F)c1 [Example 105, 4-(2-fluoro-4-methoxyphenyl)-3-(1-methyl-1H-pyrazol-4-yl)-1H-pyrrolo[2,3-b]pyridine] | 143 |

Stronger by EC50, values ahead:

| EC50 [nM] | SMILES |
| --- | --- |
| 39 | N#Cc1cccc(-c2c[nH]c3nccc(N4CCC(F)CC4)c23)c1 [Example 74, 3-[4-(4-fluoropiperidin-1-yl)-1H-pyrrolo[2,3-b]pyridin-3-yl]benzonitrile] |
| 38.7 | N#Cc1cccc(-c2c[nH]c3nccc(N4CC[C@@H](F)C4)c23)c1 [Example 75, 3-{4-[(3R)-3-fluoropyrrolidin-1-yl]-1H-pyrrolo[2,3-b]pyridin-3-yl}benzonitrile] |
| 30.6 | C[C@@H]1CN(c2ccnc3[nH]cc(-c4cccc(C#N)c4)c23)CCO1 [Example 76, 3-{4-[(2R)-2-methylmorpholin-4-yl]-1H-pyrrolo[2,3-b]pyridin-3-yl}benzonitrile] |
| 14.1 | N#Cc1cccc(-c2c[nH]c3nccc(N4CCCC4)c23)c1 [Example 77, 3-[4-(pyrrolidin-1-yl)-1H-pyrrolo[2,3-b]pyridin-3-yl]benzonitrile] |
| 24 | N#Cc1cccc(-c2c[nH]c3nccc(N4CC[C@H](F)C4)c23)c1 [Example 78, 3-{4-[(3S)-3-fluoropyrrolidin-1-yl]-1H-pyrrolo[2,3-b]pyridin-3-yl}benzonitrile] |
| 10.5 | C[C@H]1CN(c2ccnc3[nH]cc(-c4cccc(C#N)c4)c23)CCO1 [Example 80, 3-{4-[(2S)-2-methylmorpholin-4-yl]-1H-pyrrolo[2,3-b]pyridin-3-yl}benzonitrile] |
| 11.1 | O=c1cc(-c2c[nH]c3nccc(N4CCOCC4)c23)cc[nH]1 [Example 81, 4-[4-(morpholin-4-yl)-1H-pyrrolo[2,3-b]pyridin-3-yl]pyridin-2(1H)-one] |
| 12.3 | COC(=O)c1cnc2[nH]cc(-c3cccc(C#N)c3)c2c1N1CCOCC1 [Example 82, methyl 3-(3-cyanophenyl)-4-(morpholin-4-yl)-1H-pyrrolo[2,3-b]pyridine-5-carboxylate] |
| 21.7 | Cn1cc(-c2c[nH]c3nccc(N4CCOCC4)c23)cc1C(N)=O [Example 85, 1-methyl-4-[4-(morpholin-4-yl)-1H-pyrrolo[2,3-b]pyridin-3-yl]-1H-pyrrole-2-carboxamide] |
| 2.75 | N#Cc1cc(-c2c[nH]c3nccc(N4CCOCC4)c23)c[nH]1 [Example 86, 4-[4-(morpholin-4-yl)-1H-pyrrolo[2,3-b]pyridin-3-yl]-1H-pyrrole-2-carbonitrile] |
| 5.46 | Cc1[nH]c2nccc(N3CCOCC3)c2c1-c1cc(C#N)n(C)c1 [Example 87, 1-methyl-4-[2-methyl-4-(morpholin-4-yl)-1H-pyrrolo[2,3-b]pyridin-3-yl]-1H-pyrrole-2-carbonitrile] |
| 9.93 | N#Cc1cccc(-c2c[nH]c3nccc(-c4ccncc4)c23)c1 [Example 88, 3-[4-(pyridin-4-yl)-1H-pyrrolo[2,3-b]pyridin-3-yl]benzonitrile] |
| 13.7 | Cn1cc(-c2c[nH]c3nccc(-c4ccccc4)c23)cn1 [Example 89, 3-(1-methyl-1H-pyrazol-4-yl)-4-phenyl-1H-pyrrolo[2,3-b]pyridine] |
| 42.2 | N#Cc1cccc(-c2c[nH]c3nncc(N4CCOCC4)c23)c1 [Example 90, 3-[4-(morpholin-4-yl)-7H-pyrrolo[2,3-c]pyridazin-5-yl]benzonitrile] |
| 43.4 | N#Cc1cccc(-c2c[nH]c3nccc(-c4cccc(C(=O)NC5CC5)c4)c23)c1 [Example 91, 3-[3-(3-cyanophenyl)-1H-pyrrolo[2,3-b]pyridin-4-yl]-N-cyclopropylbenzamide] |
| 43.7 | N#Cc1cccc(-c2c[nH]c3nncc(N4CCOCC4)c23)c1F [Example 92, 2-fluoro-3-[4-(morpholin-4-yl)-7H-pyrrolo[2,3-c]pyridazin-5-yl]benzonitrile] |
| 45.6 | N#Cc1cccc(-c2c[nH]c3nccc(-c4cccnc4)c23)c1 [Example 93, 3-[4-(pyridin-3-yl)-1H-pyrrolo[2,3-b]pyridin-3-yl]benzonitrile] |
| 45.6 | Cn1cc(-c2c[nH]c3nccc(-c4ccc(F)c(F)c4)c23)cn1 [Example 94, 4-(3,4-difluorophenyl)-3-(1-methyl-1H-pyrazol-4-yl)-1H-pyrrolo[2,3-b]pyridine] |
| 49.5 | Cn1cc(-c2c[nH]c3nccc(-c4cc(F)ccc4F)c23)cn1 [Example 95, 4-(2,5-difluorophenyl)-3-(1-methyl-1H-pyrazol-4-yl)-1H-pyrrolo[2,3-b]pyridine] |
